Test results taken from the supplement of paper PMC10307832.

How the values were obtained:
Assay in all cases: relative viability (nuclei count vs DMSO), 5 days (fraction); higher = more cells survive
EPLC-272H = test system: EPLC-272H
Outline: (§1)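 Lung cancer cell lines were seeded in 1536-well plates and dosed by pin tool the next day, with either a single drug or a fixed anchor-drug dose combined with five library-drug doses (not always all listed) spaced in √10 steps. Five days later, one step fixed the cells and stained their nuclei (final 0.05% Triton X-100, 1% formaldehyde, 1 ug/ml Hoechst), and nuclei were counted on 4× images. Relative viability is the nuclei count in treated wells divided by the count in vehicle wells, and each value is the median of duplicate plates.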

NCI-H520 = test system: NCI-H520
Outline: as §1

NCI-H1651 = test system: NCI-H1651
Outline: as §1

NCI-H2405 = test system: NCI-H2405
Outline: as §1

NCI-H23 = test system: NCI-H23
Outline: as §1

ChaGo-K-1 = test system: ChaGo-K-1
Outline: as §1

NCI-H2087 = test system: NCI-H2087
Outline: as §1

NCI-H322M = test system: NCI-H322M
Outline: as §1

UMC-11 = test system: UMC-11
Outline: as §1

SK-MES-1 = test system: SK-MES-1
Outline: as §1

NCI-H1563 = test system: NCI-H1563
Outline: as §1

NCI-H1944 = test system: NCI-H1944
Outline: as §1

NCI-H1793 = test system: NCI-H1793
Outline: as §1

NCI-H1993 = test system: NCI-H1993
Outline: as §1

EMC-BAC-2 = test system: EMC-BAC-2
Outline: as §1

NCI-H1395 = test system: NCI-H1395
Outline: as §1

LCLC-97TM1 = test system: LCLC-97TM1
Outline: as §1

NCI-H1355 = test system: NCI-H1355
Outline: as §1

LCLC-103H = test system: LCLC-103H
Outline: as §1

H3255 = test system: H3255
Outline: as §1

NCI-H2085 = test system: NCI-H2085
Outline: as §1

HCC-827 = test system: HCC-827
Outline: as §1

NCI-H650 = test system: NCI-H650
Outline: as §1

SMILES: C[C@@H]1CN(CC(=O)Nc2ccc3c(c2)Cc2cccc(-c4cc(=O)cc(N5CCOCC5)o4)c2S3)C[C@H](C)O1 + Cc1nc(Nc2ncc(C(=O)Nc3c(C)cccc3Cl)s2)cc(N2CCN(CCO)CC2)n1 [Dasatinib] (partner 0.075 µM)
- relative viability (EPLC-272H; first compound 0.04 µM): 0.459
- relative viability (EPLC-272H; first compound 0.1265 µM): 0.284
- relative viability (EPLC-272H; first compound 0.4 µM): 0.319
- relative viability (EPLC-272H; first compound 4 µM): 0.341
- relative viability (NCI-H520; first compound 0.04 µM): 0.216
- relative viability (NCI-H520; first compound 0.1265 µM): 0.227
- relative viability (NCI-H520; first compound 0.4 µM): 0.248
- relative viability (NCI-H520; first compound 4 µM): 0.136
- relative viability (NCI-H1651; first compound 0.04 µM): 0.47
- relative viability (NCI-H1651; first compound 0.1265 µM): 0.411
- relative viability (NCI-H1651; first compound 0.4 µM): 0.478
- relative viability (NCI-H1651; first compound 4 µM): 0.348
- relative viability (NCI-H2405; first compound 0.04 µM): 0.226
- relative viability (NCI-H2405; first compound 0.1265 µM): 0.187
- relative viability (NCI-H2405; first compound 0.4 µM): 0.229
- relative viability (NCI-H2405; first compound 4 µM): 0.169
- relative viability (NCI-H23; first compound 0.04 µM): 0.751
- relative viability (NCI-H23; first compound 0.1265 µM): 0.751
- relative viability (NCI-H23; first compound 0.4 µM): 0.711
- relative viability (NCI-H23; first compound 4 µM): 0.735
- relative viability (ChaGo-K-1; first compound 0.04 µM): 0.603
- relative viability (ChaGo-K-1; first compound 0.1265 µM): 0.617
- relative viability (ChaGo-K-1; first compound 0.4 µM): 0.553
- relative viability (ChaGo-K-1; first compound 4 µM): 0.524
- relative viability (NCI-H2087; first compound 0.04 µM): 0.971
- relative viability (NCI-H2087; first compound 0.1265 µM): 0.852
- relative viability (NCI-H2087; first compound 0.4 µM): 0.894
- relative viability (NCI-H2087; first compound 4 µM): 0.743
- relative viability (NCI-H322M; first compound 0.04 µM): 0.277
- relative viability (NCI-H322M; first compound 0.1265 µM): 0.262
- relative viability (NCI-H322M; first compound 0.4 µM): 0.26
- relative viability (NCI-H322M; first compound 4 µM): 0.24
- relative viability (UMC-11; first compound 0.04 µM): 0.475
- relative viability (UMC-11; first compound 0.1265 µM): 0.478
- relative viability (UMC-11; first compound 0.4 µM): 0.505
- relative viability (UMC-11; first compound 4 µM): 0.448
- relative viability (SK-MES-1; first compound 0.04 µM): 0.444
- relative viability (SK-MES-1; first compound 0.1265 µM): 0.353
- relative viability (SK-MES-1; first compound 0.4 µM): 0.398
- relative viability (SK-MES-1; first compound 4 µM): 0.263
- relative viability (NCI-H1563; first compound 0.04 µM): 0.433
- relative viability (NCI-H1563; first compound 0.1265 µM): 0.429
- relative viability (NCI-H1563; first compound 0.4 µM): 0.445
- relative viability (NCI-H1563; first compound 4 µM): 0.433
- relative viability (NCI-H1944; first compound 0.04 µM): 0.21
- relative viability (NCI-H1944; first compound 0.1265 µM): 0.236
- relative viability (NCI-H1944; first compound 0.4 µM): 0.263
- relative viability (NCI-H1944; first compound 4 µM): 0.264
- relative viability (NCI-H1793; first compound 0.04 µM): 0.403
- relative viability (NCI-H1793; first compound 0.1265 µM): 0.373
- relative viability (NCI-H1793; first compound 0.4 µM): 0.414
- relative viability (NCI-H1793; first compound 4 µM): 0.342
- relative viability (NCI-H1993; first compound 0.04 µM): 0.643
- relative viability (NCI-H1993; first compound 0.1265 µM): 0.626
- relative viability (NCI-H1993; first compound 0.4 µM): 0.556
- relative viability (NCI-H1993; first compound 4 µM): 0.641
- relative viability (EMC-BAC-2; first compound 0.04 µM): 0.386
- relative viability (EMC-BAC-2; first compound 0.1265 µM): 0.34
- relative viability (EMC-BAC-2; first compound 0.4 µM): 0.394
- relative viability (EMC-BAC-2; first compound 4 µM): 0.413
- relative viability (NCI-H1395; first compound 0.04 µM): 0.396
- relative viability (NCI-H1395; first compound 0.1265 µM): 0.387
- relative viability (NCI-H1395; first compound 0.4 µM): 0.366
- relative viability (NCI-H1395; first compound 4 µM): 0.368
- relative viability (LCLC-97TM1; first compound 0.04 µM): 0.839
- relative viability (LCLC-97TM1; first compound 0.1265 µM): 0.744
- relative viability (LCLC-97TM1; first compound 0.4 µM): 0.794
- relative viability (LCLC-97TM1; first compound 4 µM): 0.893
- relative viability (NCI-H1355; first compound 0.04 µM): 0.639
- relative viability (NCI-H1355; first compound 0.1265 µM): 0.723
- relative viability (NCI-H1355; first compound 0.4 µM): 0.604
- relative viability (NCI-H1355; first compound 4 µM): 0.646
- relative viability (LCLC-103H; first compound 0.04 µM): 0.451
- relative viability (LCLC-103H; first compound 0.1265 µM): 0.436
- relative viability (LCLC-103H; first compound 0.4 µM): 0.405
- relative viability (LCLC-103H; first compound 4 µM): 0.419
- relative viability (H3255; first compound 0.04 µM): 0.432
- relative viability (H3255; first compound 0.1265 µM): 0.347
- relative viability (H3255; first compound 0.4 µM): 0.424
- relative viability (H3255; first compound 4 µM): 0.346
- relative viability (NCI-H2085; first compound 0.04 µM): 0.222
- relative viability (NCI-H2085; first compound 0.1265 µM): 0.245
- relative viability (NCI-H2085; first compound 0.4 µM): 0.235
- relative viability (NCI-H2085; first compound 4 µM): 0.247
- relative viability (HCC-827; first compound 0.04 µM): 0.396
- relative viability (HCC-827; first compound 0.1265 µM): 0.324
- relative viability (HCC-827; first compound 0.4 µM): 0.344
- relative viability (HCC-827; first compound 4 µM): 0.311
- relative viability (NCI-H650; first compound 0.04 µM): 0.45
- relative viability (NCI-H650; first compound 0.1265 µM): 0.445
- relative viability (NCI-H650; first compound 0.4 µM): 0.359
- relative viability (NCI-H650; first compound 4 µM): 0.384
